According to patent publication US7074807B2, “Compositions and methods for inducing cell death” (Georgetown University, priority 1998, dated 2006):

Tests used:
MDA-MB 231 cells [1] = assay: Cell viability assay (WST-1); assay type: cell-based, human; conditions: 10 mM, within 2 h
Procedure: FIG. 6. Effects of tempol and tempo on cell viability. […] Control cells were grown overnight in serum-free medium, followed by treatment with 1% ethanol for various times. Fresh serum-free medium (100 ul) was added to each well in all plates, including controls followed by the addition of WST-1 (10 ul). Plates were incubated for 2 h at 37° C. and the color solution developed by WST-1 was quantified using a MR 700 microplate reader at OD=450/600. Values shown are mean±s.d. of 6 determinations per treatment condition in a representative experiment, and the experiment was repeated three times.
Cell Viability Assay—Effects of nitroxide compounds on cell viability and proliferation were determined using a cell viability detection kit (4-[3-(4-Iodophenyl)-2-(4-nitrophenyl)-2H-5-tetrazolio]-1,3-benzene disulfonate, WST-1) according to the manufacturer's instructions (Boehringer Mannheim, Indianapolis, Ind.). Briefly, MDA-MB 231 cells were seeded onto 96 well plates at density of 10,000 cells per well and maintained overnight in 10% FBS containing medium. The cells were then washed twice with phosphate buffered saline and re-fed in serum-free medium. The following day, cells were treated for various times with tempol (10 mM) or tempo (10 mM), using six wells per treatment condition. […] Plates were incubated for 2 h at 37° C. and analyzed at OD=450/600 using a MR 700 microplate reader.

MDA-MB 231 cells [2] = assay: Apoptosis assay (annexin V-FITC/propidium iodide flow cytometry); conditions: 10 mM, MDA-MB 231; for apoptosis/necrosis, time course analysis: up to 3 h
Procedure: (§1) FIGS. (7A1–7A3), (7B1–7B2), (7C1–7C3), (7D1–7D2), (7E1–7E3), (7F1–7F2). […] Cells were grown in serum-free medium overnight in T-25 flasks and treated with tempol (10 mM) or tempo (10 mM) for various times, trypsinized, and then resuspended in 200 ul 1× binding buffer as described in experimental procedures. The cell suspension was double-stained with annexin V-FITC and propidium iodide and analyzed by flow cytometry. Background signal was determined by comparison with double-stained, single-stained, or unstained control cells. (7A1–7A3), (7C1–7C3), and (7E1–7E3) are cytograms showing a relative distribution of viable (V), apoptotic (A), and necrotic (N) cells at 2 h following tempol or tempo treatment of MDA-MB 231 cells (A), PCI-04A cells (C), and PC-3 cells (E). (7B1–7B3), (7D1–7D2), and (7F1–7F2) are time course analyses of MDA-MB 231 cells (B), PCT-04A cells (D), and PC-3 cells (F). 100,000 cells were analyzed at each time point in triplicate (B) or quadruplicate (D and F). Solid bars, 1% ethanol, striped bars, 10 mM tempol, empty bars, 10 mM tempo. […] Data shown are representative from three to four independent experiments. (7B1–7B2), Time course analysis of MDA-MB 231 cells undergoing apoptosis (annexin V-FITC staining) (7B1), or necrosis (propidium iodide staining) (7B2). Values shown are mean±s.d. of triplicate determinations per time point in each treatment category, and representative of three to four independent experiments. […] (7D1–7D2), Time course analysis of PCI-04A cells undergoing apoptosis (annexin V-FITC staining) (7D1), or necrosis (propidium iodide staining) (7D2). Values shown are mean±s.d. of quadruplicate determinations per time point in each treatment category. […] (7F1–7F2), Time course analysis of PC-3 cells undergoing apoptosis (annexin V-FITC staining) (7F1), or necrosis (propidium iodide staining) (7F2). Values shown are mean±s.d. of quadruplicate determinations per time point in each treatment category. Control/C, cells treated with 1% ethanol for 2 h.
(§2) Apoptosis Assay—ApoAlert Annexin V apoptosis detection system (Clontech Lab Inc., Palo Alto, Calif.) was used to measure the relative distribution of apoptotic and necrotic cells. Briefly, cells were seeded at a density of 1×10^6 cells per 25 cm^2 tissue culture flask in medium containing 10% FBS overnight, followed by washing twice in serum-free medium. Cells were maintained overnight in serum-free medium and exposed to tempol (10 mM) or tempo (10 mM) for various times. This was followed by rinsing twice with serum-free medium prior to trypsinization, dilution in two volumes of serum-free medium, and centrifugation at 10,000× g. The cell pellet was washed once with PBS and resuspended in 200 ul of 1× binding buffer. The cell suspension was double-labeled with fluorescein isothiocyanate (FITC)-labeled annexin V (10 ul) and propidium iodide (PI) (10 ul) according to the manufacturer's instructions. Unlabeled cells or untreated cells labeled with either FITC-annexin V or PI, or double-labeled served as internal controls for the background signal. The intensity of the dye uptake by cells was detected using FACStar plus Flow Cytometer (Becton Dickerson, Lincoln Park, N.J.), and data were analyzed using Reproman True Facts software (Seattle, Wash.). Viable cells were FITC−/PI−, apoptotic cells were FITC+/PI−, and necrotic cells were FITC+/PI+.

[3] = as above; conditions: human
Procedure: as §1, §2

caspase-3 in DU145 cells = assay: Caspase-3 activity assay (DEVD-AFC); assay type: cell-based, human; conditions: 2.5 mM, 2 hr
Procedure: (§3) FIG. 10 illustrates the effect of tempo on caspase-3 activity in prostate cancer cell lines. Cells were treated with 2.5 mM tempo for indicated times in duplicate or triplicate as described in legend to FIG. 2. Representative data from one experiment are shown. Experiments was repeated 2–3 times.
(§4) ApoAlert CPP32 activity/caspase-3 assay kit was used to measure caspase-3 activity in cells according to manufacturer's instructions (Clontech). Briefly, after tempo treatment, cells were washed 3 times with ice-cold PBS and lysed in Clontech cell lysis buffer for 10 min on ice followed by microcentrifugation at 15,000× g for 5 min. Whole cell lysate (50 ug) was incubated for 1 h at 37° C. in caspase-3 reaction mixture containing 10 mM DTT in 2× reaction buffer, 50 uM CPP32 substrate, DEVD-AFC. The amounts of 7-amino-4 trifluoromethyl coumarin (AFC) released were detected by spectrofluorometer (Hitachi F4500) with excitation at 400 nm and emission at 505 nm.

caspase-3 in LNCaP cells = assay: Caspase-3 activity assay (DEVD-AFC); assay type: cell-based, human; conditions: 2.5 mM, 24 hr
Procedure: as §3, §4

caspase-3 in PC3 cells = assay: Caspase-3 activity assay (DEVD-AFC); assay type: cell-based, human; conditions: 2.5 mM, 24 hr
Procedure: as §3, §4

| SMILES | decrease in the number of viable cells (MDA-MB 231 cells [1]) | apoptotic cells (A) (MDA-MB 231 cells [2]; 2 h) [%] | apoptosis/necrosis, time course analysis (MDA-MB 231 cells [2]) | viability at 2 h, 10 mM [3] [%] | viable cells (V) (MDA-MB 231 cells [2]; 2 h) [%] | level of caspase-3 activity (caspase-3 in DU145 cells) [%] | increase in caspase activity (caspase-3 in LNCaP cells) [fold] | level of caspase-3 activity (caspase-3 in PC3 cells) [%] |
| --- | --- | --- | --- | --- | --- | --- | --- | --- |
| CC1(C)CC(O)CC(C)(C)N1[O] [tempol, 4-hydroxy-tempo, reference compound] | comparable to control cells | 6.32 | did not induce apoptosis or necrosis | 89.8 |  |  |  |  |
| CC1(C)CCCC(C)(C)N1[O] [tempo, 2,2,6,6-tetramethylpiperidine-N-oxyl] | > 50% | 52.42 | steady increase in the number of apoptotic cells for upto 2 h, followed by a considerable increase in the number of necrotic cells by 3 h |  | 35.83 | ~170 | ~12 | ~200 |
